Results: PubChem BioAssay AID258 (DTP/NCI, 2004)
Several values for one entry are separate records, joined by “and”; a condition that tells them apart may be missing. Identical values can stand only once. Toxic doses and inconclusive results are not listed.

Tested on: CD2F1 mice, L1210 leukemia sc, survival T/C
Assay: NCI In Vivo Anticancer Drug Screen. Data for tumor model L1210 Leukemia (subcutaneous) in CD2F1 (CDF1) mice
Conditions: endpoint: median survival time, higher = longer survival
Protocol: The antitumor activity of compounds was measured in mice bearing transplantable tumors. Survival or tumor size were measured and the results are expressed as the measurement made in the treated group (T) divided by the measurement made in the vehicle treated control group (C). The tumor model used in this assay is L1210 Leukemia (subcutaneous) in CD2F1 (CDF1) mice

[1] = dose: 39.0 mg/kg/injection, schedule: Q01DX Z (sc), vehicle: other
[2] = dose: 25.0 mg/kg/injection, schedule: Q01DX009 (ip), vehicle: Klucel (hydroxypropylcellulose) (HPC)
[3] = dose: 50.0 mg/kg/injection, schedule: Q01DX009 (ip), vehicle: Klucel (hydroxypropylcellulose) (HPC)

Question: How did the T/C (dose: 8.6 mg/kg/injection, schedule: Q01DX009 (ip), vehicle: water) turn out when `O=NNc1cnccn1` was run?
Answer: 96 % of control

Question: What about the T/C (dose: 14.4 mg/kg/injection, schedule: Q01DX009 (ip), vehicle: water) of the same compound?
Answer: 104 % of control

Question: And the T/C (dose: 24.0 mg/kg/injection, schedule: Q01DX009 (ip), vehicle: water)?
Answer: 100 % of control

Question: What about the T/C (dose: 66.66 mg/kg/injection, schedule: Q01DX009 (ip), vehicle: water) of the same compound?
Answer: 95 % of control

Question: What about the T/C (dose: 66.67 mg/kg/injection, schedule: Q01DX009 (ip), vehicle: water) of the same compound?
Answer: 120 % of control

Question: Which results are given for `Nc1nc2ncn(O)c2c(=O)[nH]1`?
Answer: T/C (dose: 4.5 mg/kg/injection, schedule: Q01DX009 (ip), vehicle: other): 278 % of control; T/C (dose: 7.5 mg/kg/injection, schedule: Q01DX009 (ip), vehicle: other): 164 % of control; T/C (dose: 12.5 mg/kg/injection, schedule: Q01DX009 (ip), vehicle: other): 268 % of control; T/C (dose: 20.83 mg/kg/injection, schedule: Q01DX009 (ip), vehicle: other): 113 % of control

Question: Which results are given for `CSc1nc2[nH]cnc(=S)c2[nH]1`?
Answer: T/C (dose: 23.0 mg/kg/injection, schedule: Q01DX Z (sc), vehicle: methylcellulose (MC)): 90 % of control; T/C (dose: 39.0 mg/kg/injection, schedule: Q01DX Z (sc), vehicle: methylcellulose (MC)): 100 % of control; T/C (dose: 65.0 mg/kg/injection, schedule: Q01DX Z (sc), vehicle: methylcellulose (MC)): 100 % of control; T/C (dose: 108.0 mg/kg/injection, schedule: Q01DX Z (sc), vehicle: methylcellulose (MC)): 100 % of control; T/C (dose: 180.0 mg/kg/injection, schedule: Q01DX Z (sc), vehicle: methylcellulose (MC)): 100 % of control; T/C (dose: 300.0 mg/kg/injection, schedule: Q01DX Z (sc), vehicle: methylcellulose (MC)): 100 % of control

Question: Which results are given for `O=c1n(CC2CO2)c(=O)n(CC2CO2)c(=O)n1CC1CO1` (stereo not drawn)?
Answer: T/C (dose: 12.5 mg/kg/injection, schedule: Q04DX003 (ip), vehicle: saline): 106 % of control; T/C (dose: 25.0 mg/kg/injection, schedule: Q04DX003 (ip), vehicle: saline): 114 % of control; T/C (dose: 40.0 mg/kg/injection, schedule: Q01DX009 (ip), vehicle: saline): 150 % of control and 191 % of control; T/C (dose: 40.0 mg/kg/injection, schedule: Q04DX003 (ip), vehicle: saline): 114 % of control; T/C (dose: 50.0 mg/kg/injection, schedule: Q01DX009 (ip), vehicle: saline): 172 % of control and 193 % of control; T/C (dose: 50.0 mg/kg/injection, schedule: Q04DX003 (ip), vehicle: saline): 153 % of control and 172 % of control

Question: `CCN(CC)CCNc1ccc(CO)c2sc3ccccc3c(=O)c12` was tested. Which T/C (dose: 10.0 mg/kg/injection, schedule: Q01DX009 (ip), vehicle: water) did it give?
Answer: 103 % of control and 110 % of control and 116 % of control

Question: What about the T/C (dose: 20.0 mg/kg/injection, schedule: Q01DX009 (ip), vehicle: water) of the same compound?
Answer: 113 % of control and 115 % of control and 121 % of control

Question: What about the T/C (dose: 40.0 mg/kg/injection, schedule: Q01DX009 (ip), vehicle: water) of the same compound?
Answer: 150 % of control

Question: And the T/C (dose: 80.0 mg/kg/injection, schedule: Q01DX009 (ip), vehicle: water)?
Answer: 100 % of control

Question: And the T/C (dose: 160.0 mg/kg/injection, schedule: Q01DX009 (ip), vehicle: water)?
Answer: 103 % of control and 86 % of control and 94 % of control

Question: `O=C(Nc1cccnc1)c1ccc([N+](=O)[O-])s1` was tested. Which T/C (dose: 25.0 mg/kg/injection, schedule: Q01DX005 (ip), vehicle: saline) did it give?
Answer: 108 % of control

Question: And the T/C (dose: 50.0 mg/kg/injection, schedule: Q01DX005 (ip), vehicle: saline)?
Answer: 102 % of control

Question: What about the T/C (dose: 100.0 mg/kg/injection, schedule: Q01DX005 (ip), vehicle: saline) of the same compound?
Answer: 111 % of control

Question: How did the T/C (dose: 3.0 mg/kg/injection, schedule: Q01DX Z (sc), vehicle: other) turn out when `O=C/C(Br)=C(/Br)C(=O)O` was run?
Answer: 100 % of control

Question: And the T/C (dose: 5.0 mg/kg/injection, schedule: Q01DX Z (sc), vehicle: other)?
Answer: 100 % of control

Question: And the T/C (dose: 8.4 mg/kg/injection, schedule: Q01DX Z (sc), vehicle: other)?
Answer: 100 % of control

Question: And the T/C (dose: 14.0 mg/kg/injection, schedule: Q01DX Z (sc), vehicle: other)?
Answer: 100 % of control

Question: And the T/C [1]?
Answer: 100 % of control

Question: Which T/C [1] does the source give for `Oc1ccc(F)c2cccnc12` here?
Answer: 100 % of control

Question: And the T/C (dose: 65.0 mg/kg/injection, schedule: Q01DX Z (sc), vehicle: other)?
Answer: 100 % of control

Question: And the T/C (dose: 108.0 mg/kg/injection, schedule: Q01DX Z (sc), vehicle: other)?
Answer: 100 % of control

Question: What about the T/C (dose: 180.0 mg/kg/injection, schedule: Q01DX Z (sc), vehicle: other) of the same compound?
Answer: 100 % of control

Question: Which T/C (dose: 12.5 mg/kg/injection, schedule: Q01DX009 (ip), vehicle: Klucel (hydroxypropylcellulose) (HPC)) does the source give for `Cc1ccc(NCCN(C)C)c2c(=O)c3cc(O)ccc3sc12` here?
Answer: 110 % of control and 112 % of control

Question: What about the T/C [2] of the same compound?
Answer: 112 % of control and 117 % of control

Question: What about the T/C [3] of the same compound?
Answer: 165 % of control

Question: What does the source list for `NCCCNCCCCNC(=O)C(O)NC(=O)CCCCCCN=C(N)N` (stereo not drawn)?
Answer: T/C (dose: 0.75 mg/kg/injection, schedule: Q01DX009 (ip), vehicle: saline): 156 % of control; T/C (dose: 1.5 mg/kg/injection, schedule: Q01DX009 (ip), vehicle: saline): 172 % of control; T/C (dose: 1.56 mg/kg/injection, schedule: Q01DX009 (ip), vehicle: saline): 162 % of control and 183 % of control; T/C (dose: 3.0 mg/kg/injection, schedule: Q01DX009 (ip), vehicle: saline): 192 % of control; T/C (dose: 3.12 mg/kg/injection, schedule: Q01DX009 (ip), vehicle: saline): 198 % of control and 203 % of control; T/C (dose: 4.0 mg/kg/injection, schedule: Q01DX001 (ip), vehicle: saline): 107 % of control; T/C (dose: 4.0 mg/kg/injection, schedule: Q03HX008 (ip), vehicle: saline): 121 % of control; T/C (dose: 6.0 mg/kg/injection, schedule: Q01DX009 (ip), vehicle: saline): 237 % of control; T/C (dose: 6.25 mg/kg/injection, schedule: Q01DX009 (ip), vehicle: saline): 207 % of control and 235 % of control; T/C (dose: 8.0 mg/kg/injection, schedule: Q01DX001 (ip), vehicle: saline): 103 % of control and 109 % of control; T/C (dose: 12.0 mg/kg/injection, schedule: Q01DX009 (ip), vehicle: saline): 239 % of control; T/C (dose: 12.5 mg/kg/injection, schedule: Q01DX009 (ip), vehicle: saline): 228 % of control and 231 % of control; T/C (dose: 16.0 mg/kg/injection, schedule: Q01DX001 (ip), vehicle: saline): 107 % of control and 113 % of control; T/C (dose: 25.0 mg/kg/injection, schedule: Q01DX009 (ip), vehicle: saline): 160 % of control and 220 % of control and 275 % of control; T/C (dose: 32.0 mg/kg/injection, schedule: Q01DX001 (ip), vehicle: saline): 115 % of control and 123 % of control

Question: Which results are given for `O=S1(=O)CS(=O)(=O)OCCO1`?
Answer: T/C [2]: 216 % of control; T/C [3]: 175 % of control
